This note sets out measurements from patent US20080306076A1, “MODULATION OF CHEMOSENSORY RECEPTORS AND LIGANDS ASSOCIATED THEREWITH” (SENOMYX, INC., priority 2007, published 2008).

Positions count from the first letter of the chain named.

One test concerns the target T1, hT1R1 S172A (Homo sapiens, UniProt Q7RTX1, S172A).
T1 construct: expressed in transfected cells; host or cells: HEK293, transient transfection
T1 sequence (Q7RTX1 21-841 S172A): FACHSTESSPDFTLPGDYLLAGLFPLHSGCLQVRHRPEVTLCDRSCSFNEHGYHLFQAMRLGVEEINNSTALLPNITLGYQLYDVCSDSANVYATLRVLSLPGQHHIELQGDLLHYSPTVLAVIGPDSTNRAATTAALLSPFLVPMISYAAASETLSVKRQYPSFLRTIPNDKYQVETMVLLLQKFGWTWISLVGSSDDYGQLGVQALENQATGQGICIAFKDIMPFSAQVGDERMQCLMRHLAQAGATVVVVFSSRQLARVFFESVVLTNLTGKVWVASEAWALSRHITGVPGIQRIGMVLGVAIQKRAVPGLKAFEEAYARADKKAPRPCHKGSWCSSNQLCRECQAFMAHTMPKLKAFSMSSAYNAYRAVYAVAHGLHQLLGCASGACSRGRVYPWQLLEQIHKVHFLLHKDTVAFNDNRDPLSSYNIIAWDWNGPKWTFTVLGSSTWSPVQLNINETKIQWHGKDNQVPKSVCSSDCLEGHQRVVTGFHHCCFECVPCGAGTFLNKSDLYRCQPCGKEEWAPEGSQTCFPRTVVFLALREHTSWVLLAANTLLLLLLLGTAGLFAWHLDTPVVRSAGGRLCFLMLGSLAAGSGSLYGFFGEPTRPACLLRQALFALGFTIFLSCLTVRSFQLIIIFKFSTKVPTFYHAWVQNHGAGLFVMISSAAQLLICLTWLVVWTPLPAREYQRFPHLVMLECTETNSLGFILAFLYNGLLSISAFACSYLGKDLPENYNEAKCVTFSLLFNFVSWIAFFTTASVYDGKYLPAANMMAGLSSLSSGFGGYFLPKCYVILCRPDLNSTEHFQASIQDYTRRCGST
T1 sequence (Q923K1 21-858 partner): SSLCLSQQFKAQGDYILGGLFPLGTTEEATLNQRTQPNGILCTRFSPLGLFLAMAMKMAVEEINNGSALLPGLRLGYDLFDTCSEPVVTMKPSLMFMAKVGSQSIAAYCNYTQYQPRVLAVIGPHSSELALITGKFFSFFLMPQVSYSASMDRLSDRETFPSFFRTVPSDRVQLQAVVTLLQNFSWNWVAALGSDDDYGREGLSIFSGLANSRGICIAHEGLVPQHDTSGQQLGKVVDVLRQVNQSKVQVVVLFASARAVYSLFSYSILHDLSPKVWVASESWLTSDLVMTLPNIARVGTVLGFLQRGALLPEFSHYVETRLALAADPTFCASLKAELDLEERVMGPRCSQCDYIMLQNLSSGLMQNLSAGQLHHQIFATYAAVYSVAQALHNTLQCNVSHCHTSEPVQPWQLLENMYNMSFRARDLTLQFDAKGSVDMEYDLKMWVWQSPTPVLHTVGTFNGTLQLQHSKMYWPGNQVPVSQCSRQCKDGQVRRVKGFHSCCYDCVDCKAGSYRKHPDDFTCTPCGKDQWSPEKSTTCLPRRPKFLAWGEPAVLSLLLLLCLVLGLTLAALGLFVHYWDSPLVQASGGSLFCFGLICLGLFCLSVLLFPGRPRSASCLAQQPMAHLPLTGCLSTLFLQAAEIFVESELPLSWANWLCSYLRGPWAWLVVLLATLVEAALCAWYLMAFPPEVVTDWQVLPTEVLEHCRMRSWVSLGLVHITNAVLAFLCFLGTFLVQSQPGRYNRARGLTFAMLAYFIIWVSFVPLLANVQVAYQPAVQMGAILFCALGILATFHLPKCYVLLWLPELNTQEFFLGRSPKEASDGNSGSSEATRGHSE
The test can be described thus: Mutagenesis study, hT1R1 mutant S172A. The format is cell-based. The following applies: S172 mutant, FIG. 11. The source says: (§1) In order to further define the interaction sites of umami stimuli, we performed site-directed mutagenesis on human T1R1 VFT. The mutagenesis was done using the routine PCR-based method. […] were transiently transfected into HEK293 cell together with the rat T1R3 wild type cDNA, and the transfected cells were characterized using an automated FLIPR machine or a calcium imaging system as described in our previous patent applications.

The target of the next test is T2, hT1R1 R277A (Homo sapiens, UniProt Q7RTX1, R277A).
T2 construct: expressed in transfected cells; host or cells: HEK293, transient transfection
T2 sequence (Q7RTX1 21-841 R277A): T1 sequence (Q7RTX1 21-841 S172A) with A152S, R257A
T2 sequence (Q923K1 21-858 partner): T1 sequence (Q923K1 21-858 partner)
Briefly: Mutagenesis study, hT1R1 mutant R277A. The format is cell-based. The following applies: R277 mutation.
Description: as §1

Turning to `N[C@@H](CCC(=O)O)C(=O)O` [L-Glu, L-glutamate], the “activity against L-Glu” value at hT1R1 S172A is “significant reduced activity”.

With `Nc1nc2c(ncn2[C@@H]2O[C@H](COP(=O)(O)O)[C@@H](O)[C@H]2O)c(=O)[nH]1` [GMP, guanosine-5′-monophosphate], the “enhancement activity of GMP” value on hT1R1 R277A is reported as “similarly affected”.
